Measurements from patent US12030875B2, “EIF4E inhibitors and uses thereof” (PIC Therapeutics, Inc., priority 2018, dated 2024).

Target: T1, Human eIF4E (Homo sapiens, UniProt P06730)
T1 construct: Human eIF4E (aa 28-217) with a C-terminal His-tag; made in house
Assay: Human eIF4E/4G2 binding assay (TR-FRET)
Conditions: eIF4E (aa 28-217) with biotin labeled 4G2 peptide
How it was run: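 His-tagged human eIF4E (aa 28-217), refolded from E. coli inclusion bodies, at 82.5 nM working stock; compounds in 10-point 2-fold DMSO series, preincubated 15 min at RT in 50 mM NaPi pH 6.5, 50 mM KCl, 1 mM DTT. Biotin-4G2 peptide added, 15 min, then Eu-streptavidin/APC-anti-His, 20 min; normalized 665/615 nm TR-FRET signal; IC50 by curve fit.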

T1 sequence (P06730 28-217): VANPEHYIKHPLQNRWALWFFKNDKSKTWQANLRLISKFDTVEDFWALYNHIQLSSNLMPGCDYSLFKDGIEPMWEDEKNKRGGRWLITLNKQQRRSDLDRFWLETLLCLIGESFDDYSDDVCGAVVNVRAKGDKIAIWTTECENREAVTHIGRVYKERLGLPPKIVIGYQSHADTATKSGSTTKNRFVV

SMILES | IC50
O=C(O)C1CCN(c2nc(-c3ccc(-c4ccc(F)cc4)cc3)c(-c3cccc4[nH]ccc34)s2)C1 (centres unmarked) [Compound I-119] | 5 to 25 µM
O=C(O)CC1CCCN1c1nc(-c2ccc(-c3cnco3)cc2)c(-c2ccccc2)s1 (centres unmarked) [Compound I-36] | > 25 µM
CC(CNc1nc(-c2ccc(-c3cnco3)cc2)c(-c2cccnc2)s1)C(=O)O (centres unmarked) [Compound I-29] | > 25 µM
O=C(O)C1CN(c2nc(-c3ccc(-c4cnco4)cc3)c(-c3cccc4[nH]ccc34)s2)CCO1 (centres unmarked) [Compound I-59] | > 25 µM
CC(C)C(CC(=O)O)Nc1nc(-c2ccc(-c3ccc(F)cc3)cc2)c(-c2cccnc2)s1 (centres unmarked) [Compound I-68] | > 25 µM
CC(C)(CNc1nc(-c2ccc(-c3ccc(F)cc3)cc2)c(-c2cncnc2)s1)C(=O)O [Compound I-73] | > 25 µM
CC1(C(=O)O)CCCN(c2nc(-c3ccc(-c4ccc(F)cc4)cc3)c(-c3cncnc3)s2)C1 (centres unmarked) [Compound I-145] | > 25 µM
O=C(O)CC1CCCN1c1nc(-c2ccc(-c3ccc(F)cc3)nc2)c(-c2cncnc2)s1 (centres unmarked) [Compound I-112] | > 25 µM
CC1(C(=O)O)CCCN(c2nc(-c3ccc(-c4ccc(F)cc4)cc3)c(-c3cccnc3)s2)C1 (centres unmarked) [Compound I-146] | 5 to 25 µM
CC1(C(=O)O)CN(c2nc(-c3ccc(-c4ccc(F)cc4)nc3)c(-c3cncnc3)s2)C1 [Compound I-84] | > 25 µM
O=C(O)C1CCN(c2nc(-c3ccc(-c4cnco4)cc3)c(-c3cccc4[nH]ccc34)s2)C1 (centres unmarked) [Compound I-43] | > 25 µM
CC1(C(=O)O)CCCN(c2nc(-c3ccc(-c4cnco4)cc3)c(-c3ccccc3)s2)C1 (centres unmarked) [Compound I-60] | > 25 µM
O=C(O)C1CN(c2nc(-c3ccc(-c4ccc(F)cc4)cc3)c(-c3cccc4[nH]ccc34)s2)C1 [Compound I-80] | 5 to 25 µM
CC(C)(CNc1nc(-c2ccc(-c3ccc(F)cc3)cc2)cs1)C(=O)O [Compound I-70] | > 25 µM
O=C(O)C1CN(c2nc(-c3ccc(-c4ccc(F)cc4)cc3)cs2)C1 [Compound I-76] | > 25 µM
O=C(O)C1CCN(c2nc(-c3ccc(-c4cnco4)cc3)c(-c3ccccc3)s2)C1 (centres unmarked) [Compound I-40] | > 25 µM
CC1(C(=O)O)CN(c2nc(-c3ccc(-c4ccc(F)cc4)cc3)cs2)C1 [Compound I-81] | > 25 µM

SMILES | IC50
O=C(O)CC1CCCN1c1nc(-c2ccc(-c3ccc(F)cc3)cc2)c(-c2ccccc2)s1 (centres unmarked) [Compound I-111] | < 5 µM
O=C(O)C1CN(c2nc(-c3ccc(-c4ccc(F)cc4)cc3)c(-c3cncnc3)s2)CCO1 (centres unmarked) [Compound I-141] | > 25 µM
CC(C)C(CC(=O)O)Nc1nc(-c2cccnc2)c(-c2ccc(-c3cnco3)cc2)s1 (centres unmarked) [Compound I-3] | > 25 µM
CCCC(CNc1nc(-c2ccc(-c3cnco3)cc2)c(-c2ccccc2)s1)C(=O)O (centres unmarked) [Compound I-18] | 5 to 25 µM
CC1(C(=O)O)CCCN(c2nc(-c3ccc(-c4ccc(F)cc4)cc3)c(-c3cccc4[nH]ccc34)s2)C1 (centres unmarked) [Compound I-147] | < 5 µM
O=C(O)C1CCN(c2nc(-c3ccc(-c4cnco4)cc3)c(-c3cncnc3)s2)C1 (centres unmarked) [Compound I-41] | > 25 µM
CC(CNc1nc(-c2ccc(-c3ccc(F)cc3)cc2)cs1)C(=O)O (centres unmarked) [Compound I-99] | > 25 µM
O=C(O)C1CN(c2nc(-c3ccc(-c4cnco4)cc3)c(-c3cncnc3)s2)CCO1 (centres unmarked) [Compound I-57] | > 25 µM
O=C(O)C1(CNc2nc(-c3ccc(-c4ccc(F)cc4)cc3)cs2)CC1 [Compound I-120] | > 25 µM
CC(C)(CNc1nc(-c2ccc(-c3ccc(F)cc3)cc2)c(Br)s1)C(=O)O [Compound I-71] | 5 to 25 µM
O=C(O)C1CCN(c2nc(-c3ccc(-c4ccc(F)cc4)cc3)c(-c3cncnc3)s2)CC1 [Compound I-137] | > 25 µM
O=C(O)C1CN(c2nc(-c3ccc(-c4cnco4)cc3)c(-c3cncnc3)s2)C1 [Compound I-10] | > 25 µM
O=C(O)C1(CNc2nc(-c3ccc(-c4ccc(F)cc4)cc3)c(-c3ccccc3)s2)CC1 [Compound I-122] | < 5 µM
CC(CNc1nc(-c2cncnc2)c(-c2ccc(-c3ccc(F)cc3)cc2)s1)C(=O)O (centres unmarked) [Compound I-102] | > 25 µM
CC1(C(=O)O)CN(c2nc(-c3ccc(-c4ccc(F)cc4)cc3)c(-c3cccc4[nH]ccc34)s2)C1 [Compound I-86] | 5 to 25 µM
O=C(O)C1CC(CNc2nc(-c3ccc(-c4ccc(F)cc4)cc3)c(-c3cccnc3)s2)C1 (centres unmarked) [Compound I-130] | > 25 µM

The remaining lines, values ahead:

IC50 | SMILES
5 to 25 µM | Cc1sc(N2CCOC(C(=O)O)C2)nc1-c1ccc(-c2ccc(F)cc2)cc1 (centres unmarked) [Compound I-236, 4-(4-(4′-fluorobiphenyl-4-yl)-5-methylthiazol-2-yl) morpholine-2-carboxylic acid]
5 to 25 µM | O=C(O)C1CN(c2nc(-c3ccc(Oc4ccccc4)cc3)c(-c3cccc4[nH]ccc34)s2)C1 [Compound I-161]
5 to 25 µM | CCCC(CNc1nc(-c2ccc(Oc3ccccc3)cc2)c(-c2cccc3[nH]ccc23)s1)C(=O)O (centres unmarked) [Compound I-171]
> 25 µM | O=C(O)CC1CCCN1c1nc(-c2ccc(Oc3ccccc3)cc2)c(-c2cccnc2)s1 (centres unmarked) [Compound I-188]
> 25 µM | O=C(O)C1CN(c2nc(-c3ccc(Oc4ccccc4)cc3)c(-c3cccnc3)s2)C1 [Compound I-160]
5 to 25 µM | CC(C)C(CC(=O)O)Nc1nc(-c2ccc(Oc3ccccc3)cc2)c(-c2ccccc2)s1 (centres unmarked) [Compound I-149]
> 25 µM | CC(CNc1nc(-c2ccc(Oc3ccccc3)cc2)cs1)C(=O)O (centres unmarked) [Compound I-176]
5 to 25 µM | CC(C)C(CC(=O)O)Nc1nc(-c2ccc(Oc3ccccc3)cc2)c(-c2cccc3[nH]ccc23)s1 (centres unmarked) [Compound I-152]
> 25 µM | CC(CC(=O)O)Nc1nc(-c2ccc(Oc3ccccc3)cc2)c(-c2cccc3[nH]ccc23)s1 (centres unmarked) [Compound I-175]
> 25 µM | CC(C)(CNc1nc(-c2ccc(Oc3ccccc3)cc2)c(-c2cccnc2)s1)C(=O)O [Compound I-156]
< 5 µM | O=C(O)[C@H]1CCCN(c2nc(-c3ccc(-c4ccc(F)cc4)cc3)c(-c3ccccc3)s2)C1 [Compound I-224]
> 25 µM | O=C(O)C1(CNc2nc(-c3ccc(Oc4ccccc4)cc3)cs2)CC1 [Compound I-195]
< 5 µM | O=C(O)C1(CNc2nc(-c3ccc(Oc4ccccc4)cc3)c(-c3ccccc3)s2)CC1 [Compound I-196]
< 5 µM | CC(CNc1nc(-c2ccc(-c3ccc(F)cc3)cc2)c(C(F)(F)F)s1)C(=O)O (centres unmarked) [Compound I-229]
> 25 µM | CC1(C(=O)O)CN(c2nc(-c3ccc(Oc4ccccc4)cc3)c(-c3cncnc3)s2)C1 [Compound I-164]
> 25 µM | CC1(C(=O)O)CCCN(c2nc(-c3ccc(Oc4ccccc4)cc3)c(-c3cncnc3)s2)C1 (centres unmarked) [Compound I-218]
5 to 25 µM | O=C(O)C1CC(CNc2nc(-c3ccc(Oc4ccccc4)cc3)c(-c3cccc4[nH]ccc34)s2)C1 (centres unmarked) [Compound I-204]
